ChEMBL document CHEMBL1154226, “Synthesis and evaluation of inhibitors of cytochrome P450 3A (CYP3A) for pharmacokinetic enhancement of drugs” (Bioorg Med Chem Lett, 2009)
pIC50: −log10 of the molar value.

Tests used:
Liver microsomes = assay: Intrinsic clearance in human liver microsomes; assay type: ADME, Microsome
Canis familiaris = species on record: Canis familiaris; settings: dog, in vivo, po, 5 mg/kg
in vivo = settings: Beagle, dog, po, 5 mg/kg
Cytochrome P450 3A4 = Cytochrome P450 3A4 (Homo sapiens, UniProt P08684); assay: Inhibition of human recombinant CYP3A4-mediated oxidation of 7-benzyloxyquinoline
Cytochrome P450 3A4, sequence (P08684 whole entry): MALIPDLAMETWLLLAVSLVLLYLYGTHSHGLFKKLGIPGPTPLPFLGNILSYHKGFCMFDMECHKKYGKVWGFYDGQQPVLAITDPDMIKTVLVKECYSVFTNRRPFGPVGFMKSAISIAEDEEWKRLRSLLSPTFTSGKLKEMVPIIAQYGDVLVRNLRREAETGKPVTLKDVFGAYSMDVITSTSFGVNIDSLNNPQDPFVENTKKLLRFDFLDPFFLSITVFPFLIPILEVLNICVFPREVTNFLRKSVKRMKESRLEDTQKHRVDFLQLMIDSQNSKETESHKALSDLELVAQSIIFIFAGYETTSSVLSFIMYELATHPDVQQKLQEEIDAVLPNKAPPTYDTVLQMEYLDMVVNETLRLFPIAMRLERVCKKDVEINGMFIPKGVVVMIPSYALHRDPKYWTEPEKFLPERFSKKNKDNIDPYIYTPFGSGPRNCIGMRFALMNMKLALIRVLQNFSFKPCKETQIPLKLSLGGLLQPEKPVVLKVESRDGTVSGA

Row | pIC50 (Liver microsomes) | AUC (Canis familiaris) | Cmax (in vivo) | pIC50 (Cytochrome P450 3A4) | Compound
1 | 7.27 | 0.06 µg/mL | 30 ng/mL |  | O=C(NC(Cc1ccccc1)CN(CC(Cc1ccccc1)NC(=O)OCc1cncs1)CC(Cc1ccccc1)NC(=O)OCc1cncs1)OCc1cncs1 (stereo not given)
2 |  |  |  | 6.46 | CCN(C[C@H](Cc1ccccc1)NC(=O)OCc1cnc[nH]1)C[C@H](Cc1ccccc1)NC(=O)OCc1cnc[nH]1
3 |  |  |  | 6.87 | CCN(C[C@H](CC(C)C)NC(=O)OCc1cncs1)C[C@H](CC(C)C)NC(=O)OCc1cncs1
4 |  |  |  | 6.13 | CCN(C[C@H](Cc1ccccc1)NC(=O)OCc1cccs1)C[C@H](Cc1ccccc1)NC(=O)OCc1cccs1
5 |  | 1.38 µg/mL | 610 ng/mL |  | CCN(C[C@H](Cc1ccccc1)NC(=O)OCc1cncs1)C[C@H](Cc1ccccc1)NC(=O)OCc1cncs1
6 |  |  |  | 7.06 | CCN(CC(CC(=O)OC)NC(=O)OCc1cncs1)CC(CC(=O)OC)NC(=O)OCc1cncs1 (stereo not given)
7 |  |  |  | 7.18 | CCN(CC(CC1CCCCC1)NC(=O)OCc1cncs1)CC(CC1CCCCC1)NC(=O)OCc1cncs1 (stereo not given)
8 |  |  |  | 6.56 | CCN(C[C@H](Cc1ccccc1)NC(=O)OCc1cnco1)C[C@H](Cc1ccccc1)NC(=O)OCc1cnco1
9 |  |  |  | < 5.52 | CCN(CCNC(=O)OCc1cncs1)CCNC(=O)OCc1cncs1
10 | 7.40 | 2.19 µg/mL | 1320 ng/mL |  | CC(C)c1nc(CN(C)C(=O)N[C@H](C(=O)N[C@@H](Cc2ccccc2)C[C@H](O)[C@H](Cc2ccccc2)NC(=O)OCc2cncs2)C(C)C)cs1 [RITONAVIR]
